{"source": "patent US20100092402A1", "about": "“TREATMENT OF RESPIRATORY DISEASE” (Mucokinetica Ltd., priority 2007, published 2010)", "biological_target": "T1, epithelial amiloride-sensitive sodium channel (ENaC) (Homo sapiens, UniProt P37088+P51168+P51170)", "T1 sequence (P37088 1-669)": "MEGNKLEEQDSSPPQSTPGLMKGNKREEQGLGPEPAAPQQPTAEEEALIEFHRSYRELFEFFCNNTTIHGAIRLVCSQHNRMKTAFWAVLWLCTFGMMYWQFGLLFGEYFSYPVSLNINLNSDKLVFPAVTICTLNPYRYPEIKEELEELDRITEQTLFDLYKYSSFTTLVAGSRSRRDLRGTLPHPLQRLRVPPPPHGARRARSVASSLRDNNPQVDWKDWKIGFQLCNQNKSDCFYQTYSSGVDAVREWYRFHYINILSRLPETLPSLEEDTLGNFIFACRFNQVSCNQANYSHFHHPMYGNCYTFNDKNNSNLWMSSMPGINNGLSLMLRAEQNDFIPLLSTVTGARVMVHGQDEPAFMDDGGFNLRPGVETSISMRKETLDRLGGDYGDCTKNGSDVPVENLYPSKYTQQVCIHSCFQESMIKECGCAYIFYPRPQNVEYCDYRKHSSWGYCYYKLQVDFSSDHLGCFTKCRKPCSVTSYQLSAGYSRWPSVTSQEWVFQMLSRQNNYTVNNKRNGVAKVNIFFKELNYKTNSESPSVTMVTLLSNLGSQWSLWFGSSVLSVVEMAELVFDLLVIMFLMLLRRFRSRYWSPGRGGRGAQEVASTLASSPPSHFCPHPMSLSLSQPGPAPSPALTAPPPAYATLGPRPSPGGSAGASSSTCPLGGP", "T1 sequence (P51168 1-640)": "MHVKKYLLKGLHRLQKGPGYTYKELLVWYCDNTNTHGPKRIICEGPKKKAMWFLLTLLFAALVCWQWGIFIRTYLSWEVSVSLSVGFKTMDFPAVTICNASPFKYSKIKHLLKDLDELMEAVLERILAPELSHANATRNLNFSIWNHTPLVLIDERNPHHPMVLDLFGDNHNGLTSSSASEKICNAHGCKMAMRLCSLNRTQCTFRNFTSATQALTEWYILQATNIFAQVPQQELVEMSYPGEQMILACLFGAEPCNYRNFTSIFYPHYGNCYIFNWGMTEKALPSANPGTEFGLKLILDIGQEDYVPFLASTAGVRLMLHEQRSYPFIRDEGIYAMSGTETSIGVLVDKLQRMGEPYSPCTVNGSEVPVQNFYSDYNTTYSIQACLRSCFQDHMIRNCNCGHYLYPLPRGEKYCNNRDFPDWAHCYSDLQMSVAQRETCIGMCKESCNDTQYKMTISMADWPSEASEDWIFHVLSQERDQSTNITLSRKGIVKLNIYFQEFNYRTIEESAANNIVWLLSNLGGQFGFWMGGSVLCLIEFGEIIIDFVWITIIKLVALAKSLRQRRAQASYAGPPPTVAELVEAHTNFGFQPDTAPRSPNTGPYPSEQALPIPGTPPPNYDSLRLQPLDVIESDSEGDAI", "T1 sequence (P51170 1-649)": "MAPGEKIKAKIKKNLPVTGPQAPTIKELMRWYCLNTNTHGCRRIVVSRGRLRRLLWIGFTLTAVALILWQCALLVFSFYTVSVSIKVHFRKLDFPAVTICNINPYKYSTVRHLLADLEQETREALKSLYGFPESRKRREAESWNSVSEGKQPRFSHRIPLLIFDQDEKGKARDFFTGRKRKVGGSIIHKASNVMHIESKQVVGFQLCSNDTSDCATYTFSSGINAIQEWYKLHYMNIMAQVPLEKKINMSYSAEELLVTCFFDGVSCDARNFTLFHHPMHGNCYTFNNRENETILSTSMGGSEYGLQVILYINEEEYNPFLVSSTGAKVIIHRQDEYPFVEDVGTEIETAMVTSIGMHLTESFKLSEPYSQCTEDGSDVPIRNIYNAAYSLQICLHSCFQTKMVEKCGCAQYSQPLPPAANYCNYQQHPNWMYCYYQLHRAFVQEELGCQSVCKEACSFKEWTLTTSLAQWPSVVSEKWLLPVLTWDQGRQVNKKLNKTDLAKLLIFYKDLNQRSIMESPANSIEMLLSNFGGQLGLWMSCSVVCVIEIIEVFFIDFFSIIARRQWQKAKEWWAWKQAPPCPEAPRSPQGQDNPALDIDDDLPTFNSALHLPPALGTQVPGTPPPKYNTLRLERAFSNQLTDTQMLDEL", "format": "cell-based", "details": "for average baseline Isc slope in initial recording period: control slope +0.04", "procedure": "Human bronchial epithelial (HBE) cells were purchased from Cambrex Bioscience Ltd, UK., and were stored frozen in liquid nitrogen until required for use.\nHBE cells were amplified by growing in secondary culture according to the suppliers' instructions. Cells were seeded at densities of between 3,000 to 4,000/cm^2 in plastic T-25 culture flasks in bronchial epithelial cell growth medium (BEGM) prepared from bronchial epithelial basal medium (BEBM, Cambrex, UK) supplemented with bovine pituitary extract, hydrocortisone, human epidermal growth factor, epinephrine, transferrin, insulin, retinoic acid, triiodothyronine, gentamicin, and amphotericin B. Cultures were maintained at 37° C. in 5% CO2 in a humidified incubator. Medium was changed every 1 to 3 days until cells were approximately 90% confluent. Cells were then passaged with trypsin EDTA according to the suppliers' instructions, and either used for further cell cultures, or cryopreserved in liquid nitrogen in BEGM containing 10% foetal bovine serum and 10% DMSO.\nHBE cells were prepared for electrophysiology studies by growing as tertiary cultures on Snapwell (Corning) 0.4μ clear polyester membrane inserts 1.2 cm^2 coated with collagen IV (Sigma). Cells were seeded at approximately 10^5/cm^2 in 0.5 ml 1:1 DMEM (Cambrex, UK) BEGM containing bovine pituitary extract (50 μg/ml), hydrocortisone (0.5 μg/ml), human epidermal growth factor (0.5 ng/ml), epinephrine (0.5 μg/ml), transferrin (10 μg/ml), insulin (5 μg/ml), retinoic acid (50 nM), and gentamicin (50 μg/ml) (Danahay medium; Danahay et al. 2002). Snapwell inserts were mounted in 6-well plates with 3 ml Danahay medium in the wells, and grown at 37° C. in 5% CO2 in a humidified incubator. Medium was changed every 1 to 3 days. An apical air-liquid interface (ALI) was established as the cells achieved confluence (3 to 6 days) by removal of medium from the centre of the insert. Confluent differentiated bronchial epithelial cells were used for electrophysiology studies at between 15 and 29 days after establishing ALI.\nDifferentiated HBE cells grown to confluence at an air-liquid interface for 15 to 29 days were used to study substances for ability to achieve long duration down regulation of the epithelial amiloride-sensitive sodium channel (ENaC).\nStep 1: Treatment with substance. For each group of cells treated with a substance, 30 μl of 100 times final concentration of substance was added to the 3 ml basolateral culture medium, mixed and 150 μl of the resultant basolateral fluid was transferred to the apical surface for 5 min. For non-treatment control groups of basolateral fluid with no added substance was transferred to the apical surface. After 5 min. equilibration the excess apical fluid was then transferred back to the basolateral side of the culture well.\nStep 2: Variable period of incubation with the substance. Dependent on the individual experiment the cells were returned to the 37° C. incubator for periods of 0 min. to 120 min.\nStep 3: Period of substance washout with fresh culture medium. For experiments to study the duration of a substance response the HBE cells on Snapwell inserts were washed with fresh culture medium (no added substance) at 37° C. and placed in fresh 6-well plates containing 3 ml fresh culture medium (no added substance) on the basolateral side. […] Step 3 was omitted in studies where the duration of the substance response was not investigated.\nStep 4: Wash with Krebs-Ringer buffer and assembly in Ussing chambers. The Snapwell insert cultures of HBE cells were removed from the 6-well plates and washed with excess Krebs-Ringer buffer (120 mM-NaCl, 25 mM-NaHCO3, 3.3 mM-KH2PO4, 0.8 mM-K2HPO4, 1.2 mM-CaCl2, 1.2 mM-MgCl2, 10 mM-glucose) pH7.4 at 37° C. The inserts were then mounted in Ussing chambers (Snapwell diffusion chambers, Costar UK Ltd.). Each side of the chamber was filled with 5 ml Krebs-Ringer buffer and gassed continuously with 95% O2/5% CO2 at 37° C. […]", "key": {"[1]": {"details": "down regulation of ENaC activity"}}, "note": "Where two headings read alike, the source gives them in different places.", "data": [{"smiles": "N=C(N)c1ccc2cc(OC(=O)c3ccc(N=C(N)N)cc3)ccc2c1", "note": "[6-amidino-2-napthyl 4-guanidinobenzoate]", "values": [{"measurement": "average baseline Isc slope in initial recording period", "setting": "1 μM 60 min, 3 h 00 min washout, FIG. 7D", "value": "+0.93 μAmp/min"}, {"measurement": "average baseline Isc slope in initial recording period", "setting": "1 μM 60 min, 4 h 30 min washout, FIG. 7E", "value": "+0.60 μAmp/min"}, {"measurement": "amiloride ΔIsc compared to control", "setting": "1 μM 60 min, then 4 h 30 min culture medium washout", "value": "not significantly different"}, {"measurement": "slope of rising baseline short circuit current relative to untreated controls", "setting": "3 h 00 min in fresh culture, first 15 minutes of recording, FIGS. 7D and 7A", "value": "over 20 times"}, {"measurement": "time to half maximal inhibition (onset)", "setting": "[1]", "value": "≤ 5", "unit": "min"}, {"measurement": "time to maximum down regulation (onset)", "setting": "[1]", "value": "≤ 30", "unit": "min"}]}]}
